Source: US9346839B2
Like-named read-outs stand apart in the source and are kept apart here.

Columns and labels:
[1] = Pharmacokinetic study, plasma and brain levels by LC-MS/MS; format: in vivo; conditions: both sexes, C57BL6, mouse, intravenous 10 mg/kg, mice; for AUC(0-t): read-out: AUC0-48
Experimental: Liquid Chromatography (LC) Method for Mass Spectrometry (MS) Detection. Chromatographic separation was on an ACE C18 column (Mac Mod Analytical, 3 μm, Ultra-Inert HPLC Column, 50×2.1 mm) protected by a matched ACE guard cartridge. Separation solvents were A: H2O (99%), methanol (1%), and formic acid (0.1%) and B: H2O (1%), methanol (99%), and formic acid (0.1%) delivered at a flow rate of 400 μl/minute. The hydrophobic character of the analytes allows a large injection (50 μl) to chromatofocus on a column at 5% B. After 0.2 minutes separation was with a linear gradient of 11% B/minute for 4 minutes. Column wash was to 80% B for 2 minutes and re-equilibration at 5% B for 1.5 minutes for a total run-time of 8 minutes. The first 2 minutes of chromatographic effluent was diverted to waste.
Mass Spectrometry Parameters. The mass spectrometer was run in positive ion mode using the electrospray ionization (ESI) source. The source block was 100° C. and desolvation gas temperature 300° C. Argon collision gas pressure on a line to the cell was 1E-3 mbar. Quadrupoles 1 and 3 were set to 0.9 amu FWHH and collision energy and cone voltage settings were optimized for each compound. The data were processed using MassLynx 4.1/QuanLynx and Graphpad Prism 5. Fragmentation patterns of compounds 4, 8, and 15, methyl (Z)-3-(((6-methoxybenzo[d]thiazol-2-yl)imino)methyl)benzoate, 4-(1-((6-methoxybenzo-[d]thiazol-2-yl)amino)ethyl)phenol, and (Z)-1-(4-fluorophenyl)-N-(6-methoxybenzo[d]thiazol-2-yl) methanimine were determined by infusing an aqueous/methanol solution introduce with a T fitting into 30% solvent B from the UPLC for source optimization. The most abundant transitions were chosen for all the three compounds.
Plasma Sample Preparation. Mouse plasma samples, 50 μl, were transferred to a 1.5 ml centrifuge tube and then 50 μl of IS (4 μg/ml) and 50 μl of calibration standard sample were vortexed for 30 seconds. Acetonitrile (0.1 ml) was added to precipitate the proteins. After being vortexed for 3 minutes, the sample was centrifuged for 10 minutes at 13000 rpm. Supernatant (50 μl) was diluted with 50 μl water and injected onto the column.
Brain Sample Preparation. Brain tissue (100 mg) was weighed and placed in a centrifuge tube. Methanol (100 μl) was added and the mixture was homogenized for 1 minute before adding 100 μl IS (6 μg/ml) to the homogenized mixture. The sample was then vortexed for 30 seconds before centrifuging for 10 minute at 13000 rpm. The supernatant liquid was diluted 50% with water and injected.
Application to Pharmacokinetic Study and Data Analysis. Using the validated LCMS/MS method, blood and brain levels of 4, 8, and 15 were measured in male and female C57BL6 mice (8-10 week-old, weighing approximately 25-30 grams). The mice were housed in a room with controlled temperature (23±3° C.) and moisture level (55±15% relative humidity) and exposed to a controlled 12 hour light/12 hour dark cycle. They were allowed to access to food and water ad libitum. Mice were fasted for 6 hours with free access to water prior to the pharmacokinetic study. To determine the time course of compounds 4, 8, and 15 action in the brain, the plasma pharmacokinetics and BBB penetration capability of the inhibitors were investigated. In these experiments, compounds 4, 8, and 15 were administered to mice by intravenous injection at a dosage of 10 mg/kg. Blood and brain samples were collected from mouse at each time point (2, 5, 10, 30, 60, 120, 240, 360, 720, 1440, and 2880 minutes), a total of 11 time points. For plasma measurements, blood (approximately 500-800 μl) was collected via cardiac-puncture into tubes containing sodium heparin anti-coagulant. Plasma was separated via centrifugation (4° C., 3500 rpm, 10 minutes) and stored in −80° C. freezer. For qualitative confirmations of these compounds in CSF, samples were collected at 2 time points (240 and 1440 min) from five animals at each time point. […]

SK-N-SH cells [2] = assay: ATP levels in Aβ-treated cells; format: cell-based; conditions: for ATP levels in Aβ-treated cells: 5 μM Aβ1-42 plus 1 μM compound; for ATP levels, inhibitor alone: without Aβ
Experimental: Forty-eight hour later, ATP levels (μmol mg^−1 protein) were measured in cell lysates.
Adenosine-5′-Triphosphate (ATP) Levels. To determine the effect of ABAD inhibitors on Aβ-induced impairment in energy metabolism, ATP levels were measured. […] ATP levels were measured in the cell lysates. […] Therefore, ABAD inhibitors can block mitochondrial dysfunction mediated by Aβ.

ABAD [3] = biological target: T1, ABAD (Homo sapiens (Human), UniProt Q99714); assay: Surface plasmon resonance (BIACORE 3000) binding experiment with ABAD
Experimental: Binding Experiment with ABAD. The interactions between compounds and ABAD were performed using the dual flow cell BIACORE 3000 instrument. Surface Plasmon Resonance (SPR) studies were performed on a BIACORE 3000 at 25° C. SPR binding experiments with ABAD were performed in phosphate-buffered saline (PBS, pH 7.4, 0.005% surfactant P20) as the running and the sample buffer. […] ABAD was dissolved in PBS buffer (pH 5.0) at a concentration of 10 μg/ml. The protein was immobilized directly and covalently on the hydrophilic carboxymethylated dextran matrix of the CM5 sensor chip (BIACORE) by using the standard primary amine coupling reaction on a CM5 sensor chip according to standard procedures. After the immobilization of the protein, excess activated carboxylic acid groups were quenched with ethanolamine (1 M, pH 8.5).
Special care was taken during injection of samples because of carryover effects. Special washing routines were used to clean the system before injection of new samples. In addition, predipping of needles was performed. The sample flow was 40 μl/minute in experiments performed for the determination of the kinetic and equilibrium constants. Regeneration of the surfaces between subsequent binding experiments was achieved by washing the surface extensively (>>1 hour) with buffer solution. Data analyses were carried out using BIA evaluation software, and the sensor grams were processed by automatic correction for nonspecific bulk refractive index effects. The kinetic analyses of the ligand binding to the protein were performed based on the 1:1 Langmuir binding fit model according to the standard procedures described in the software manual.
To perform kinetic analyses of the binding of phosphonate derivatives to ABAD, the BIACORE 3000 instrument (based on surface plasmon resonance [SPR] technology) was used. The 1:1 Langmuir binding fit model was used for determining the equilibrium dissociation constant (KD), and the association (kon) and dissociation (koff) rate constants by using Equations (1) and (2). dR/dt=kon×C×(Rmax−R)−koff×R (1) Where R represents the response unit, C is the concentration of the analyte, and KD=koff/kon (2) The results were evaluated by χ2 analysis.

SK-N-SH cells [4] = assay: Mitochondrial cytochrome c oxidase (CcO) activity in Aβ-treated cells; format: cell-based; conditions: for CcO activity, inhibitor alone: 1 μM inhibitor alone, without Aβ; for Aβ-mediated decrease of CcO activity: 5 μM oligomer Aβ1-42 plus 1 μM compound, 48 hours
Experimental: SK-NSH cells were treated with 5 μM oligomer Aβ plus 1 μM of ABAD inhibitor; inhibitor alone; vehicle (VEH) without inhibitor; or Aβ alone. Forty-eight hour later, CcO activity (μmol protein mg^−1 min^−1) was measured in cell lysates.
Method of Measurement of Mitochondrial Cytochrome c Oxidase (CcO) Activity. The CcO activity was measured according to known methods (Du, et al. (2008) Nat. Med. 14:1097-105) with a cytochrome c oxidase kit (Sigma). In brief, SK-N-SH cells were incubated with ABAD inhibitor and oligomer Aβ for 48 hours. After washing the cells twice with PBS, the cells were collected and concentration was determined by the Bradford method. A suitable volume of cells and enzyme solution was added to 475 μl assay buffer. The reaction was triggered by the addition of 25 μl freshly prepared ferrocytochrome C substrate solution into the cuvette. Changes in OD550 nm were recorded immediately with an Amersham Biosciences ULTROSPECT 3100 pro spectrophotometer.
Cytochrome C Oxidase (CcO) Activity. To assess the effect of ABAD inhibitor on […] mitochondrial respiratory function, CcO activity was determined.

ABAD [5] = biological target: T1, ABAD; assay: Inhibition of reduction of S-acetoacetyl-CoA (SAAC) by ABAD (ABAD enzymatic activity); format: biochemical
Experimental: Assay of ABAD Enzymatic Activity. […] Before the assay, all the assay components except SAAC were pre-incubated for 5 minutes, and the reaction started with the addition of SAAC into the reaction mix. The reaction was carried out for a total 6 minutes at room temperature under steady-state conditions, and the decrease of NADH absorbance at 340 nm was determined every 10 seconds. Kinetic data were analyzed by PRISM (Scitech, San Diego, Calif.) to determine IC50 values and Ki.

[6] = Table 7, 1:1 Langmuir binding fit, read-out: SPR KD
[7] = Table 6, reduction of SAAC by ABAD, read-out: IC50
[8] = Table 6, reduction of SAAC by ABAD, read-out: Ki
[9] = Table 7, read-out: ABAD Enzymatic Activity IC50
[10] = Table 7, read-out: ABAD Enzymatic Activity Ki

T1 sequence (Q99714 whole entry): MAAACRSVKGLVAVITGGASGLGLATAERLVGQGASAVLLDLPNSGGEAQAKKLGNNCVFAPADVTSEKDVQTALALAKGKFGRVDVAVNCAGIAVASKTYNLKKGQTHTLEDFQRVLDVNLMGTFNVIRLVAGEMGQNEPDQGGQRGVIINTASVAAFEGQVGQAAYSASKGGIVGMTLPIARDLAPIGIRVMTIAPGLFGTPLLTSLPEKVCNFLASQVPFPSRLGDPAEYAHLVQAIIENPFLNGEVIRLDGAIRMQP

Row | SMILES | AUC(0-inf) ([1]; Brain) | Cmax ([1]; Brain) | half-life ([1]; Brain) | AUC(0-t) ([1]; Brain) | AUC(0-inf) ([1]; Plasma) | Cmax ([1]; Plasma) | half-life ([1]; Plasma) | AUC(0-t) ([1]; Plasma) | ATP levels in Aβ-treated cells (SK-N-SH cells [2]) | ATP levels, inhibitor alone (SK-N-SH cells [2]) | Kd (ABAD [3]; [6]) | CcO activity, inhibitor alone (SK-N-SH cells [4]) | Aβ-mediated decrease of CcO activity (SK-N-SH cells [4]) | IC50 (ABAD [5]; [7]) | Ki (ABAD [5]; [8]) | IC50 (ABAD [5]; [9]) | Ki (ABAD [5]; [10]) | inhibitory effect on SAAC reduction by ABAD (ABAD [5]; in words) | Tmax ([1]; Brain) | Tmax ([1]; Plasma) | further results
1 | COc1ccc2nc(N[C@@H](c3ccc(O)cc3)P(=O)(OC)OC)sc2c1 (racemic) [Compound 8, Dimethyl ((4-hydroxyphenyl)((6-methoxybenzo[d]thiazol-2-yl)amino)methyl)phosphonate] | 7.1 ng·h/mL | 4.8 ng/mL | 8.3 h | 6.9 ng·h/mL | 2870 ng·h/mL | 2130 ng/mL | 5.5 h | 2860 ng·h/mL | rescued ATP levels | comparable to cells treated with vehicle alone without Aβ | 0.291 µM | no effect on CcO activity without Aβ | reversed the Aβ-mediated decrease of CcO activity | 259 µM | 70.6 µM | 52.7 µM | 14.9 µM | most potent inhibitory effect | – | – | –
2 | COC(=O)c1cc([C@H](Nc2nc3ccc(OC)cc3s2)P(=O)(OC)OC)ccc1O [Compound 4, Methyl 5-((dimethoxyphosphoryl)((6-methoxybenzo[d]thiazol-2-yl)amino)methyl)-2-hydroxybenzoate] | 75.1 ng·h/mL | 50.7 ng/mL | 17.1 h | 66.5 ng·h/mL | 3030 ng·h/mL | 2370 ng/mL | 6.2 h | 3030 ng·h/mL | rescued ATP levels | comparable to cells treated with vehicle alone without Aβ | 0.496 µM | no effect on CcO activity without Aβ | reversed the Aβ-mediated decrease of CcO activity | 19.6 µM | 5.5 µM | 341 ± 68.7 µM | 96.6 ± 19.4 µM | modest inhibitory effect | 1.8 min | 1.8 min | Kd (ABAD [3]; Table 6, read-out: KD): 0.496 µM
3 | COc1ccc2nc(N[C@@H](c3ccc(F)cc3)P(=O)(OC)OC)sc2c1 [Compound 15, Dimethyl ((4-fluorophenyl)((6-methoxybenzo[d]thiazol-2-yl)amino)methyl)phosphonate] | 65.4 ng·h/mL | 44.3 ng/mL | 11.4 h | 64 ng·h/mL | 2990 ng·h/mL | 1980 ng/mL | 6.1 h | 2980 ng·h/mL | rescued ATP levels | comparable to cells treated with vehicle alone without Aβ | 0.264 µM | no effect on CcO activity without Aβ | reversed the Aβ-mediated decrease of CcO activity | – | – | 1260 ± 199 µM | 356 ± 56.1 µM | – | 1.8 min | 1.8 min | inhibition of SAAC reduction by ABAD (ABAD [5]; at 10 μM): did not inhibit; inhibitory effect on SAAC reduction by ABAD (ABAD [5]; at 100 or 400 μM): slight inhibitory effect
